Test results taken from patent US11739098B2 (BRISTOL-MYERS SQUIBB COMPANY, priority 2017, dated 2023).

Legend:
Format in all cases: cell-based
human TLR9 = biological target: T1, human TLR9 (Homo sapiens, UniProt Q9NR96); experiment: TLR9 inhibition reporter assay (HEK-Blue cells, SEAP reporter, ODN2006 stimulation); settings: HEK-Blue cells overexpressing human TLR9, SEAP reporter, ODN2006 5 nM
T1 construct: host or cells: HEK-Blue cells (HEK293-derived reporter line)
T1 sequence (Q9NR96 26-1032): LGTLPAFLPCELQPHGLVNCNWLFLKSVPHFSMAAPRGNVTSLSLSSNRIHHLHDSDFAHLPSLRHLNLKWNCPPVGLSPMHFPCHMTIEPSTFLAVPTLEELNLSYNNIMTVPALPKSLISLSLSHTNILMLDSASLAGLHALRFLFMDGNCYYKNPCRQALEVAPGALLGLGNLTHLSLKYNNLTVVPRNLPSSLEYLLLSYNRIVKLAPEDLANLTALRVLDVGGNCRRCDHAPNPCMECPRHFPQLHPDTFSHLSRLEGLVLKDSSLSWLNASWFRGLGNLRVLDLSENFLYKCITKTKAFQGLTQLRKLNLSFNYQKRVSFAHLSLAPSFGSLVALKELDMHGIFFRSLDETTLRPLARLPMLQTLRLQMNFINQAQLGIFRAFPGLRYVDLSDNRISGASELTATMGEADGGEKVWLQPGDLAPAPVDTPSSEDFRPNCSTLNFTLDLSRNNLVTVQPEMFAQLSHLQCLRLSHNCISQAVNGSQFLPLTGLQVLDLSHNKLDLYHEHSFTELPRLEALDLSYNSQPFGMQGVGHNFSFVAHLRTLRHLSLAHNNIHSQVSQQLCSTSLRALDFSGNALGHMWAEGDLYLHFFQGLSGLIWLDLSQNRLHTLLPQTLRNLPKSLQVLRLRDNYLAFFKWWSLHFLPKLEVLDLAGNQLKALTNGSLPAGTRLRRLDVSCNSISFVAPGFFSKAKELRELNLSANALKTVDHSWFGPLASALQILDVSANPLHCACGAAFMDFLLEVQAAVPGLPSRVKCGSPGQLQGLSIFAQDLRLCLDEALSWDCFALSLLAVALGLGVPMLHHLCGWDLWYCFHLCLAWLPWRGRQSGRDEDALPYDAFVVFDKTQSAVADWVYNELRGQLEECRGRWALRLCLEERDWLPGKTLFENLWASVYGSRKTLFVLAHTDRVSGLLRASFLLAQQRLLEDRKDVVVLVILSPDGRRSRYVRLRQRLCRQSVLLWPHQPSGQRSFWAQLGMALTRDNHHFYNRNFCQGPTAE
Protocol: (§1) TLR7/8/9 Inhibition Reporter Assays
(§2) HEK-Blue™-cells (Invivogen) overexpressing human TLR7, TLR8 or TLR9 receptors were used for screening inhibitors of these receptors using an inducible SEAP (secreted embryonic alkaline phosphatase) reporter gene under the control of the IFN-β minimal promoter fused to five NF-κB and AP-1-binding sites. Briefly, cells are seeded into Greiner 384 well plates (15000 cells per well for TLR7, 20,000 for TLR8 and 25,000 for TLR9) and then treated with test compounds in DMSO to yield a final dose response concentration range of 0.05 nM-50 μM. After a 30 minute compound pre-treatment at room temperature, the cells are then stimulated with a TLR7 ligand (gardiquimod at a final concentration of 7.5 μM), TLR8 ligand (R848 at a final concentration of 15.9 μM) or TLR9 ligand (ODN2006 at a final concentration of 5 nM) to activate NF-κB and AP-1 which induce the production of SLAP After a 22 hour incubation at […], SLAP levels are determined with the addition of HLK-Blue™ Detection reagent (Invivogen), a cell culture medium that allows for detection of SLAP, according to manufacturer's specifications. The percent inhibition is determined as the […] in the HEK-Blue signal present in wells treated with agonist plus DMSO alone compared to wells treated with a known inhibitor.

human TLR7 = biological target: T2, human TLR7 (Homo sapiens, UniProt Q9NYK1); experiment: TLR7 inhibition reporter assay (HEK-Blue cells, SEAP reporter, gardiquimod stimulation); settings: HEK-Blue cells overexpressing human TLR7, SEAP reporter, gardiquimod 7.5 μM
T2 construct: host or cells: HEK-Blue cells (HEK293-derived reporter line)
T2 sequence (Q9NYK1 27-1049): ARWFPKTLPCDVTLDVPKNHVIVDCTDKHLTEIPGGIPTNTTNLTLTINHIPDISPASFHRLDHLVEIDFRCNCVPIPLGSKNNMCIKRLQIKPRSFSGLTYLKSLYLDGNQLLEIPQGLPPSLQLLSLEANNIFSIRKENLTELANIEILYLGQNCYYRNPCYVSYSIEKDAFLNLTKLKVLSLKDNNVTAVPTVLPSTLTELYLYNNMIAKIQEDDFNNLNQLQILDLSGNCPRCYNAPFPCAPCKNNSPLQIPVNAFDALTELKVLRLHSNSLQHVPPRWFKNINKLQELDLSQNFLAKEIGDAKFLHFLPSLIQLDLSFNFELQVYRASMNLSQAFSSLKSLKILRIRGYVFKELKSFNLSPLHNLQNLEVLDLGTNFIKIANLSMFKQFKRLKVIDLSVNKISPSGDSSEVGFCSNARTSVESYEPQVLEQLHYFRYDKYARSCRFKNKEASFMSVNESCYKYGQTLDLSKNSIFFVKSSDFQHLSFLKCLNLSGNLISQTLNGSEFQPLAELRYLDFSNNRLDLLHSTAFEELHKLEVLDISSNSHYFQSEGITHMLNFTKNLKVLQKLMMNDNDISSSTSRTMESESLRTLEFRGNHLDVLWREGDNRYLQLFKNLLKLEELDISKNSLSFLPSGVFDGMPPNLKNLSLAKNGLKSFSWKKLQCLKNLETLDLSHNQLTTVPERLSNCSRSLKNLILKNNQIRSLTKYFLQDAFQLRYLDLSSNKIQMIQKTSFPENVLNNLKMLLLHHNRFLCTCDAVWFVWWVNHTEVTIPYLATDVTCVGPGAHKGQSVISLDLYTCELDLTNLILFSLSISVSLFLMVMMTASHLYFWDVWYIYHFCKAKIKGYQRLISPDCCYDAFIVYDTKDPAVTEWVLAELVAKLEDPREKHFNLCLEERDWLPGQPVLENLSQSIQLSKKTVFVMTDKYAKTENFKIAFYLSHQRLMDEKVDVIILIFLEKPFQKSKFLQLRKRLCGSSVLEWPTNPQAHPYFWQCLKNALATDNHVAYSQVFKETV
Protocol: as §1, §2

human TLR8 = biological target: T3, human TLR8 (Homo sapiens, UniProt Q9NR97); experiment: TLR8 inhibition reporter assay (HEK-Blue cells, SEAP reporter, R848 stimulation); settings: HEK-Blue cells overexpressing human TLR8, SEAP reporter, R848 15.9 μM
T3 construct: host or cells: HEK-Blue cells (HEK293-derived reporter line)
T3 sequence (Q9NR97 27-1041): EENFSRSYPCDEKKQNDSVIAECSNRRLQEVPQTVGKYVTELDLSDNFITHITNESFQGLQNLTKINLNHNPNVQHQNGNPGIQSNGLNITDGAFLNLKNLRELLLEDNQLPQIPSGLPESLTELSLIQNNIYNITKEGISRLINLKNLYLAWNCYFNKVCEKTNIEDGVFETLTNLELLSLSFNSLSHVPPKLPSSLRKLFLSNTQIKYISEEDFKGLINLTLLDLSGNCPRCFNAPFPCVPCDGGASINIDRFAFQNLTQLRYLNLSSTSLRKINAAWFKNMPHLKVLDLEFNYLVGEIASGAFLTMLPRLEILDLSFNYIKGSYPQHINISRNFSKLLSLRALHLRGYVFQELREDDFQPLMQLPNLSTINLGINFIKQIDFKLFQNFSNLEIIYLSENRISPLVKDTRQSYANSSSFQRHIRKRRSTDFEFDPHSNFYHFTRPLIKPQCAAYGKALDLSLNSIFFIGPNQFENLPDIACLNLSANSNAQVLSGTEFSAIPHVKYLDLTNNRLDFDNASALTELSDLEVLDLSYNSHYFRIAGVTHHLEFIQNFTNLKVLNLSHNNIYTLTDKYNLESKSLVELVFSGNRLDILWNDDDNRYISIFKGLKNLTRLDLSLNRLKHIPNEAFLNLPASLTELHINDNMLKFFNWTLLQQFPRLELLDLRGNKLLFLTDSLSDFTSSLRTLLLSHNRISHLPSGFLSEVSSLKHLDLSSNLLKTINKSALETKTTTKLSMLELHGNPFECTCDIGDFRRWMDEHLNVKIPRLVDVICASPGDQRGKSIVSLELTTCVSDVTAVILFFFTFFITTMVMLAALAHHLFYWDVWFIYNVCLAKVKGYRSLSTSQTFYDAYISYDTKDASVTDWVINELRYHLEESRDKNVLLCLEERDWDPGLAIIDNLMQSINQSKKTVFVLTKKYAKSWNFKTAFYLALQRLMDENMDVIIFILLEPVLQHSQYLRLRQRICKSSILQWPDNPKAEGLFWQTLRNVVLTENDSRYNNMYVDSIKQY
Protocol: as §1, §2

## Cc1nc2cc(-c3[nH]c4ccc(C5CCN(CC(C)(C)O)CC5)cc4c3C(C)C)ccn2n1 [Example 753, 1-(4-(3-isopropyl-2-(2-methyl-[1,2,4]triazolo[1,5-a]pyridin-7-yl)-1H-indol-5-yl)piperidin-1-yl)-2-methylpropan-2-ol]
Human TLR9
  IC50: 0.1 to 1 µM
Human TLR7
  IC50: < 0.1 µM
Human TLR8
  IC50: 0.1 to 1 µM

## Cc1cc(-c2[nH]c3ccc(C4CCN(C(=O)CCN5C[C@H]6CC[C@@H](C5)O6)CC4)cc3c2C(C)C)cn2nnnc12 [Example 622, 3-((1R,5S)-8-oxa-3-azabicyclo[3.2.1]octan-3-yl)-1-(4-(3-isopropyl-2-(8-methyltetrazolo[1,5-a]pyridin-6-yl)-1H-indol-5-yl)piperidin-1-yl)propan-1-one]
Human TLR9
  IC50: 1 to 50 µM
Human TLR7
  IC50: < 0.1 µM
Human TLR8
  IC50: < 0.1 µM

## CCN(C)C(=O)c1cn2cc(-c3[nH]c4ccc(C5CCNCC5)cc4c3C(C)C)cc(C)c2n1 [Example 266, N-ethyl-6-(3-isopropyl-5-(piperidin-4-yl)-1H-indol-2-yl)-N,8-dimethylimidazo[1,2-a]pyridine-2-carboxamide]
Human TLR9
  IC50: 1 to 50 µM
Human TLR7
  IC50: < 0.1 µM
Human TLR8
  IC50: < 0.1 µM

## CC(C)c1c(-c2ccnc3[nH]ncc23)[nH]c2ccc(C3CCNCC3)c(F)c12 [Example 259, 4-(4-fluoro-3-isopropyl-5-(piperidin-4-yl)-1H-indol-2-yl)-1H-pyrazolo[3,4-b]pyridine]
Human TLR9
  IC50: 0.1 to 1 µM
Human TLR7
  IC50: < 0.1 µM
Human TLR8
  IC50: < 0.1 µM

## CC(C)c1c(-c2cnc3[nH]nc(N)c3c2)[nH]c2ccc(C3CCNCC3)cc12 [Example 99, 5-(3-isopropyl-5-(piperidin-4-yl)-1H-indol-2-yl)-1H-pyrazolo[3,4-b]pyridin-3-amine]
Human TLR9
  IC50: 1 to 50 µM
Human TLR7
  IC50: 0.1 to 1 µM
Human TLR8
  IC50: 0.1 to 1 µM

## Cc1cc(-c2[nH]c3ccc(C4CCN(C(=O)CN(C)C)CC4)cc3c2C(C)C)c2ccccc2n1 [Example 533, 2-(dimethylamino)-1-(4-(3-isopropyl-2-(2-methylquinolin-4-yl)-1H-indol-5-yl)piperidin-1-yl)ethan-1-one]
Human TLR9
  IC50: 0.1 to 1 µM
Human TLR7
  IC50: < 0.1 µM
Human TLR8
  IC50: < 0.1 µM

## Cc1cc2nnnn2cc1-c1[nH]c2ccc(C3CCN(Cc4ccn(C)n4)CC3)cc2c1C(C)C [Example 887, 6-(3-isopropyl-5-(1-((1-methyl-1H-pyrazol-3-yl)methyl)piperidin-4-yl)-1H-indol-2-yl)-7-methyltetrazolo[1,5-a]pyridine]
Human TLR9
  IC50: 1 to 50 µM
Human TLR7
  IC50: < 0.1 µM
Human TLR8
  IC50: < 0.1 µM

## CC(C)c1c(-c2ccnc3[nH]ncc23)[nH]c2ccc(C3CCN(C(=O)CN4CCCN(C)CC4)CC3)cc12 [Example 577, 1-(4-(3-isopropyl-2-(1H-pyrazolo[3,4-b]pyridin-4-yl)-1H-indol-5-yl)piperidin-1-yl)-2-(4-methyl-1,4-diazepan-1-yl)ethan-1-one]
Human TLR9
  IC50: 0.1 to 1 µM
Human TLR7
  IC50: < 0.1 µM
Human TLR8
  IC50: < 0.1 µM

## CCc1c(-c2cccc3c2cnn3C)[nH]c2ccc(C3CCNCC3)cc12 [Example 100, 4-(3-ethyl-5-(piperidin-4-yl)-1H-indol-2-yl)-1-methyl-1H-indazole]
Human TLR9
  IC50: 1 to 50 µM
Human TLR7
  IC50: 1 to 50 µM
Human TLR8
  IC50: > 50 µM

## CCc1c(-c2ccnc3[nH]ncc23)[nH]c2ccc(C3CCN(Cc4cn[nH]n4)CC3)cc12 [Example 892, 4-(5-(1-((2H-1,2,3-triazol-4-yl)methyl)piperidin-4-yl)-3-ethyl-1H-indol-2-yl)-1H-pyrazolo[3,4-b]pyridine]
Human TLR9
  IC50: 1 to 50 µM
Human TLR7
  IC50: < 0.1 µM
Human TLR8
  IC50: < 0.1 µM

## CNC(=O)CN1CCC(c2ccc3[nH]c(-c4cnc5nn(C)cc5c4)c(C(C)C)c3c2)CC1 [Example 368, 2-(4-(3-isopropyl-2-(2-methyl-2H-pyrazolo[3,4-b]pyridin-5-yl)-1H-indol-5-yl)piperidin-1-yl)-N-methylacetamide]
Human TLR9
  IC50: 1 to 50 µM
Human TLR7
  IC50: 1 to 50 µM
Human TLR8
  IC50: > 3.13 µM

## Cc1cnc2ccc(-c3[nH]c4ccc(C5CCN(C(=O)CN(C)C)CC5)cc4c3C(C)C)cn12 [Example 522, 2-(dimethylamino)-1-(4-(3-isopropyl-2-(3-methylimidazo[1,2-a]pyridin-6-yl)-1H-indol-5-yl)piperidin-1-yl)ethan-1-one]
Human TLR9
  IC50: 0.1 to 1 µM
Human TLR7
  IC50: 0.1 to 1 µM
Human TLR8
  IC50: 0.1 to 1 µM
